Data reported in patent US10709724B2, “Methods of treating mitochondrial dysfunction” (Ecole Polytechnique Federale de Lausanne (EPFL), priority 2011, dated 2020).
Several values for one entry are separate records, joined by “and”; a condition that tells them apart may be missing. Equal values may be shown once. Entries after “also recorded” stand apart in the source; their conditions may differ.

Columns and labels:
[1] = system: C2C12 myotubes; test: Intracellular NAD+ content in C2C12 myotubes treated with PARP inhibitors; assay type: cell-based
Protocol: Cell Culture, Transfection, Adenoviral Infection and Mitochondrial Characterization. HEK293T, MEF and C2C12 cells were cultured in DMEM (4.5 g/l glucose, 10% FCS). PARP-1^+/+ and PARP-1^−/− MEFs were prepared as described in (Menissier-de Murcia et al., 1997). SIRT1 and MEFs were kindly provided by Fred Alt (Chea et al., 2005). SIRT3 MER were established according to standard techniques from conditional SERT3^−/− mice. (Picard, F., Gehin, M., Annicotte, J., Rocchi, S., Champy, M. F., O'Malley, B. W., Chambon, P., and Auwerx, J. (2002). SRC-1 and TIF2 control energy balance between white and brown adipose tissues. Cell 111, 931-941.) Deletion of the SIRT3 gene was induced via infection with adenovirus encoding for the Cre recombinase. HEK293T cells were transfected using JetPei reagent (Polyplus Transfections, Illkirch, France) according to the manufacturer's instructions. C2C12 cells were differentiated in DMEM (4.5 g/L glucose, 2% horse serum) after reaching confluency for 2 days, followed by 2 days of PJ34 treatment (10 μM). PARP-1 shRNA constructs were described in (Shah et al., 2005). Human PARP-1 and siRNAs were obtained from Dharmacon (Thermo Scientific). The adenovirus encoding for FLAG-HA-PGC-1α, control and SIRT1 shRNAs were a kind gift from Pere Puigserver and were used (MOI=100) in C2C12 myotubes as described (Canto et al., 2009). Mitochondrial charge determination was performed as described (Bai et al., 2001) and DNA strand breaks were quantified by TUNEL assays according to the manufacturer's instructions (Millipore).
NAD^+ NAM Determination. NAD^+ levels in cultured cells were determined using a commercial kit (Enzychrom™, BioAssays Systems, CA). For tissue samples NAD^+ and NAM levels were determined as described in (Sauve et al., 2005). In brief, to a weighed aliquot of frozen pulverized tissue we added as standards, ^18O-NAD^+ (typically 2.00 nmol) and ^18O-NAM (typically 2.00 nmol). 70 L of ice-cold 7% perchloric acid was then added and the sample was vortexed and sonicated three times, then centrifuged. Clear supernatant was removed and neutralized by additions of 3 M NaOH and 1 M phosphate buffer (pH=9), then centrifuged. Clear supernatant was injected onto HPLC C-18 column with 20 mM ammonium acetate eluent to separate NAD^+ and NAM from other cellular components, NAD^+ and NAM peaks (260 nm absorbance) were collected. Collections were lyophilized to dryness and subjected to MALDI-TOF analysis. For NAD^+ measurement, ratio of intensities for m/z=664 and 666 peaks, corresponding to ^16O- and ^18O-NAD^+ isotopomers, was multiplied by 2.00 nmol and then divided by tissue weight to determine NAD+ concentration in the sample. For NAM the ratio of intensities for m/z=123 and 125 peaks, corresponding to ^16O- and ^18O-NAM isotopomers, was multiplied by 2.00 nmol and then divided by tissue weight to determine NAM concentration in the sample. Corrections were applied for isotopic abundance. Other NAD metabolites were determined as previously described (Yang and Sauve, Synthesis of nictotinamide riboside and derivatives: effective agents for increasing nictinomide adenine dinucleotide concentrations in mammalian cells. J Med Chem 50, 6458-6461 (2006)).

[2] = system: C57Bl/6J mice; test: NAD+ content in mouse tissues after one week of supplemented chow; assay type: in vivo; conditions: 400 mg/kg/day in chow; for muscle NAD+ content: quadriceps
Protocol: Animal Experiments. […] In other animal experiments, 8 weeks-old male C57Bl/6J mice were purchased from Charles River and powder chow (D12450B) and high fat (D12492) diets were from Research Diets Inc (New Brunswick, N.J., USA). 80 ml of water per kg of powder CD were used to make food pellets. 40 ml of water per kg of powder HFD were used to make food pellets. […] Mice were housed separately, had ad libitum access to water and food and were kept under a 12 h dark-light cycle. Mice were fed with homemade pellets from 10 weeks of age. […] All animal experiments were carried out according to local national and EU ethical guidelines. To monitor body weight, mice were weighed and the food consumption was measured each week on the same day. In case of PJ34 treatment, mice received each 12 h (at 7:00 and 19:00) 10 mg/kg PJ34 by intraperitoneal injection for 5 continuous days. In all studies animals were killed (at 14:00) either after CO2 inhalation or cervical dislocation after 6 h of fasting (starting at 8:00), and tissues were collected and processed as specified below. […] Plasma insulin and was determined in heparinized plasma samples using specific ELISA kits (Mercodia). Blood samples were collected in heparinized tubes and plasma was isolated after centrifugation. Plasma parameters were measured using a Cobas c111 (Roche Diagnostics). […] The respiratory quotient was the ratio of CO2 production over O2 consumption. During actimetry, beamline crossings were summarized each 15 minutes.
NAD^+ NAM Determination. NAD^+ levels in cultured cells were determined using a commercial kit (Enzychrom™, BioAssays Systems, CA). […] 70 L of ice-cold 7% perchloric acid was then added and the sample was vortexed and sonicated three times, then centrifuged. Clear supernatant was removed and neutralized by additions of 3 M NaOH and 1 M phosphate buffer (pH=9), then centrifuged. Clear supernatant was injected onto HPLC C-18 column with 20 mM ammonium acetate eluent to separate NAD^+ and NAM from other cellular components, NAD^+ and NAM peaks (260 nm absorbance) were collected. Collections were lyophilized to dryness and subjected to MALDI-TOF analysis. […] Corrections were applied for isotopic abundance.

[3] = system: C. elegans; test: Worm lifespan analysis; assay type: in vivo; conditions: for variation compared to control (%): vs N2 + water
Protocol: Worm Lifespan Analysis Lifespan tests were performed as described in Mouchiroud et al (L. Mouchiroud et al., Pyruvate imbalance mediates metabolic reprogramming and mimics lifespan extension by dietary restriction in Caenorhabditis elegans. Aging Cell 10, 39 (2011)). Briefly, 60-100 animals were used per conditions and scored every other day. All lifespan experiments were performed at 20° C. […] Animals were exposed to compounds during the full life from eggs until death. To ensure a permanent exposure to the compound, plates were changed twice a week. All the compounds used in this study were dissolved in a water stock solution.

[4] = target: T1, GPR109A (Homo sapiens, UniProt Q8TDS4); assay type: cell-based; conditions: GPR109A-expressing Chem-4 cells
T1 construct: host or cells: Chem-4 cells (Ready-to-Assay GPR109A Nicotinic Acid Receptor Cells)
Protocol: GPR109A—Calcium Mobilization Assay. Ready-to-Assai™ GRP109A Nicotinic Acid Receptor Cells were used to measure calcium mobilization as specified by the manufacturer (Millipore). Calcium flux was determined using excitation at 340 and 380 nm in a fluorescence spectrophotometer (Victor X4, Perkin Elmer) in a 180 seconds time course, adding the ligand at 60 seconds. Internal validation was made using 0.1% Triton X-100 for total fluorophore release and 10 mM EGTA to chelate free calcium. Similarly, GPR109A specificity was internally validated using control cells devoid of GRP109A overexpression. Liver triglyceride measurement Liver triglycerides were measured from 20 mg of liver tissue using a variation of the Folch method, as described in Bai et al. (Bai et al., PARP-2 regulates SIRT1 expression and whole-body energy expenditure. (2011). Cell Metab 13, 450-460.

[5] = system: C. elegans; test: Quantitative RT-PCR in worms; assay type: in vivo
Protocol: mRNA and mtDNA Analysis. Total RNA was prepared using TRIzol (Invitrogen) according to the manufacturer's instructions. RNA was treated with DNase, and 2 μg of RNA was used for reverse transcription (RT). cDNA was purified on QIAquick PCR cleanup columns (Qiagen, Valencia, Calif., USA). 50× diluted cDNA was used for RT-quantitative PCR (RT-VCR) VCR) reactions (Bai et al., 2007). The RT-qPCR reactions were performed using the Light-Cycler system (Roche Applied Science) and a qPCR Supermix (Qiagen) with the primers for mice summarized in Table 1 and 4, and with the primers for worms summarized on Table 7. mtDNA quantification was performed as described (Lagouge et al., 2006) with the primers indicated in Table 2 and 5.

[6] = system: C. elegans; test: NAD measurement by HPLC in worms; assay type: in vivo; conditions: day 4 of adulthood
Protocol: Worm Respiration Assays Oxygen consumption was measured using the Seahorse XF24 equipment (Seahorse Bioscience Inc., North Billerica, Mass.) as described in Yamamoto et al. Typically, 200 animals per conditions were recovered from NGM plates with M9 medium, washed three times in 2 mLM9 to eliminate residual bacteria, and resuspended in 500 μL M9 medium. Worms were transferred in 24-well standard Seahorse plates (#100777-004) (50 worms per well) and oxygen consumption was measured 6 times. Respiration rates were normalized to the number of worms in each individual well. NAD measurement by HPLC For NAD+ quantification, approximately 1000 worms were collected in M9 buffer, washed five times to remove residual bacteria and flash-frozen in liquid nitrogen and stored at −80° C. until analysis. Extraction was started by adding 250 μl of 1.6M perchloric acid on frozen samples, followed by extensive homogenization in a Qiagen tissuelyser, and centrifugation at 20.000 g for 15 min. The supernatant was recovered and neutralized with a 3M potassium carbonate solution. […]

[7] = system: C. elegans; test: Confocal microscopy of mitochondria in body wall muscle (pmyo-3::mito::GFP reporter); conditions: in vivo
Protocol: Confocal Microscopy and Image Processing Worms were immobilized with 6 mM solution of tetramisole hydrochloride (Sigma, Buchs, Switzerland) in M9 and mounted on 6% agarose pads on glass slides. Images of worms were acquired using Zeiss LSM 700 Upright confocal microscope (Carl Zeiss AG, Oberkochen, Germany) under non-saturating exposure conditions. All the snapshots were taken from the same part of C. elegans: muscles from the upper part of the worm, excluding the regions of oesophagus and vulva. For each condition multiple worms were observed and imaged. Image processing was performed with the Fiji software. One of the critical issues during the imaging process was the position of the worm, as it influences the level of background. For the uniformity of the represented images, contrast and brightness were adjusted in order, to eliminate the undesirable background signal. Neither of these manipulations was affecting the mitochondrial shape. Tracing of the mitochondrial network contour was done by the use of Gaussian blur filter followed by the application of Laplacian operator.

[8] = system: C. elegans; test: Worm respiration assay (Seahorse XF24); assay type: in vivo; conditions: day 3 adult worms
Protocol: Worm Respiration Assays Oxygen consumption was measured using the Seahorse XF24 equipment (Seahorse Bioscience Inc., North Billerica, Mass.) as described in Yamamoto et al. Typically, 200 animals per conditions were recovered from NGM plates with M9 medium, washed three times in 2 mLM9 to eliminate residual bacteria, and resuspended in 500 μL M9 medium. Worms were transferred in 24-well standard Seahorse plates (#100777-004) (50 worms per well) and oxygen consumption was measured 6 times. Respiration rates were normalized to the number of worms in each individual well. NAD measurement by HPLC For NAD+ quantification, approximately 1000 worms were collected in M9 buffer, washed five times to remove residual bacteria and flash-frozen in liquid nitrogen and stored at −80° C. until analysis. Extraction was started by adding 250 μl of 1.6M perchloric acid on frozen samples, followed by extensive homogenization in a Qiagen tissuelyser, and centrifugation at 20.000 g for 15 min. The supernatant was recovered and neutralized with a 3M potassium carbonate solution. After centrifugation, 100 μl of supernatant was filtered and used for NAD measurement using an HPLC system (Agilent) with a Supelco LC-18-T column (Sigma), as described in Yoshino et al. (Yoshino, K. F. Mills, M. J. Yoon, S. Imai, Nicotinamide Mononucleotide, a Key NAD(+) Intermediate, Treats the Pathophysiology of Diet- and Age-Induced Diabetes in Mice. Cell Metab 14, 528 (2011)).

T1 sequence (Q8TDS4 whole entry): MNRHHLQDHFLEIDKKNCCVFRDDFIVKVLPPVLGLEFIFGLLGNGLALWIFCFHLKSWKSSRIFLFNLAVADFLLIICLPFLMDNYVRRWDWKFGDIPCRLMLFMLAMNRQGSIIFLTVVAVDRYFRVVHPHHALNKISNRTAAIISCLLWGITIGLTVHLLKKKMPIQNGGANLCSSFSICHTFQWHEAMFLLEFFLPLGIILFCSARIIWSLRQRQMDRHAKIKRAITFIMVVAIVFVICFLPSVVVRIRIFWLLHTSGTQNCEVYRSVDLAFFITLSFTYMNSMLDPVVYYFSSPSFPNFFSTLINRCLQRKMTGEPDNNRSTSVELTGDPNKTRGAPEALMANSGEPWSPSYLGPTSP

O=C1N=C2SCC=C2c2ccccc21 [TIQ-A]
intracellular NAD+ content upon PARP inhibition [1]: confirmed the increase in NAD^+ content

O=C(O)c1cccnc1 [NA, nicotinic acid, reference compound]
muscle NAD+ content [2]: significantly enhanced muscle NAD^+ content

C[C@]1(c2nc3c(C(N)=O)cccc3[nH]2)CCCN1 [ABT-888]
lifespan extension ([3]; 100 nM (FIG. 34B)): 15%
mean lifespan ± SE ([3]; N2, 100 nM, listed as ABT): 22.3 ± 1.01 days and 22.5 ± 1.05 days
mean lifespan ± SE ([3]; N2, 500 nM): 22.1 ± 1.20 days
variation compared to control (%) ([3]; N2, 500 nM): +13.9%
mean lifespan ± SE ([3]; N2, 1000 nM): 20.0 ± 1.23 days
variation compared to control (%) ([3]; N2, 1000 nM): +3.6%

NC(=O)c1ccc[n+]([C@@H]2O[C@H](COP(=O)([O-])O)[C@@H](O)[C@H]2O)c1 [NMN, nicotinamide mononucleotide, reference compound]
GPR109A activation (calcium flux) [4]: did not activate GPR109A
NAD+ levels in liver [2]: increased NAD^+ levels in liver
muscle NAD+ content [2]: only NR and NA significantly enhanced muscle NAD^+ content

NC(=O)c1cccnc1 [NAM, nicotinamide]
expression of genes of mitochondrial oxidative metabolism (cts-1, cox-4) ([5]; day 3 of adulthood): trend for increased cts-1 expression
daf-16 expression ([5]; in vivo): without affecting daf-16 mRNA levels; also recorded: daf-16 was unchanged
sod-3 expression ([5]; in vivo): significantly higher sod-3 expression; also recorded: expression of sod-3 was increased
NAD+ levels in C. elegans [6]: increased NAD+ levels
mitochondrial content in body wall muscle [7]: increase muscle mitochondrial content; also recorded: increased mitochondrial content in body wall muscle
mitochondrial morphology in body wall muscle [7]: affect mitochondrial morphology
increase of worm lifespan ([3]; FIG. 39B): 18%
mean lifespan ± SE ([3]; N2, 200 nM): 23.5 ± 1.03 days
variation compared to control (%) ([3]; N2, 200 nM): +18.1%
mean lifespan ± SE ([3]; N2, 500 nM): 22.6 ± 0.92 days
variation compared to control (%) ([3]; N2, 500 nM): +13.5%
mean lifespan ± SE ([3]; N2, 1000 nM): 21.8 ± 0.85 days
variation compared to control (%) ([3]; N2, 1000 nM): +9.5%
lifespan in sir-2.1(ok434) mutant / sir-2.1 dependence ([3]; sir-2.1(ok434) mutant worms): sir-2.1-dependent fashion
lifespan ([3]; wild type N2 worms): extended lifespan
oxygen consumption (respiration) [8]: increased respiration; also recorded: Oxygen consumption was increased
